From ChEMBL document CHEMBL1140201, “Insights into ligand-elicited activation of human constitutive androstane receptor based on novel agonists and three-dimensional quantitative structure-activity relationship” (J Med Chem, 2008)

biological target: CAR (NR1I3) His203Ala mutant (Homo sapiens, UniProt Q14994, H203A); test: Activation of human CAR His203Ala mutant expressed in human C3A cells at 10 uM after 24 hrs by GAL4-dependent luciferase reporter gene assay relative to control; format: cell-based; conditions: C3A cells expressing human CAR His203Ala mutant, read-out: FC
Sequence (Q14994 whole entry H203A, the tested form may be a part): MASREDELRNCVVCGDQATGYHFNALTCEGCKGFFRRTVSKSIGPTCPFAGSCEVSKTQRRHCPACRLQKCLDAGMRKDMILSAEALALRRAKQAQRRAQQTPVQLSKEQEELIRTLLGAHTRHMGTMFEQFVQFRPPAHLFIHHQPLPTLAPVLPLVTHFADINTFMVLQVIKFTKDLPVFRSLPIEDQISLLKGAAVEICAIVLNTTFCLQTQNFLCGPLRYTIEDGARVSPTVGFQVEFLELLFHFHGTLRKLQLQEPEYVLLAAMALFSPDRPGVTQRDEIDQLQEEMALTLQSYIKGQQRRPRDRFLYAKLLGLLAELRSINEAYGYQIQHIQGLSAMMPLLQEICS

Row | SMILES | fold induction at 24 h, 10 µM
1 | CCOc1ccccc1CCCNC(=O)Nc1c(CC)cccc1CC | 1.03
2 | CCCc1ccc(S(=O)(=O)N(Cc2ccccc2)c2ccc(OC)cc2)cc1 | 3.68
3 | O=C(NCC1CCCCC1)N[C@H]1C[C@@H]1c1ccccc1 | 2.16
4 | COc1ccc(OC)c(CN2C(=O)CS[C@@H]2c2ccc(F)c(Br)c2)c1 | 2.83
5 | CCc1cccc(NC(=O)N(CC)[C@H](C)Cc2ccc(OC)cc2)c1 | 1.88
6 | CCN(CC)c1ccc(NS(=O)(=O)c2ccc(Cl)cc2)c(C)c1 | 3.29
7 | CCc1cc(Br)ccc1S(=O)(=O)NCc1ccccc1 | 1.92
8 | Cn1ccnc1CN1CCCN(C(=O)Nc2ccc(F)c(F)c2F)CC1 | 1.49
9 | CSCCN1C(=O)CS[C@@H]1c1ccc(Br)s1 | 1.28
10 | CCC(=O)NCC(=O)N1CCCN1C(=O)Cc1c(C)[nH]c2ccccc12 | 2.06
11 | O=P(Oc1ccccc1)(Oc1ccccc1)Oc1ccccc1 [TRIPHENYL PHOSPHATE] | 2.79
12 | CCc1cc(Br)ccc1S(=O)(=O)Nc1ccccc1[C@@H](C)CC | 10.1
13 | O=S(=O)(NCC(c1ccccc1)c1ccccc1)c1cccs1 | 1.86
14 | Cc1cccc(NC(=O)N2CCN(c3cccc(C)c3)[C@H](C)C2)c1 | 1.43
15 | CN(C)c1ccc(NS(=O)(=O)c2ccc(Br)cc2)cc1 | 2.26
16 | CCN(c1ccccc1)S(=O)(=O)c1ccc(C(C)(C)CC)cc1 | 4.22
17 | O=S(=O)(Nc1nc2c(s1)CCCC2)c1ccc(Br)s1 | 1.18
18 | C[C@@H]1Cc2ccccc2N1S(=O)(=O)c1cccc2nsnc12 | 1.52
19 | O=S(=O)(NCc1csc2ccccc12)c1cccs1 | 1.43
20 | Cc1cccc(NC(=O)N(Cc2ccccc2)Cc2ccccc2)c1 | 3.48
21 | CC(C)c1ccc(OP(=O)(Oc2ccc(C(C)C)cc2)Oc2ccc(C(C)C)cc2)cc1 | 6.76
22 | CCOc1ccccc1N1CCN(Cc2ccc(C)s2)CC1 | 1.9
23 | Cc1ccc(NC(=O)NC2CCC2)cc1C | 1.53
24 | CCCCCNC(=O)Nc1c(C)cccc1C(C)(C)C | 4.17

biological target: T1, CAR (NR1I3) ligand-binding domain, wild type (Homo sapiens, UniProt Q14994); test: Activation of human CAR-LBD expressed in human C3A cells at 10 uM after 24 hrs by GAL4-dependent luciferase reporter gene assay relative to control; format: cell-based; conditions: C3A cells expressing human CAR-LBD, read-out: FC
T1 sequence (Q14994 whole entry): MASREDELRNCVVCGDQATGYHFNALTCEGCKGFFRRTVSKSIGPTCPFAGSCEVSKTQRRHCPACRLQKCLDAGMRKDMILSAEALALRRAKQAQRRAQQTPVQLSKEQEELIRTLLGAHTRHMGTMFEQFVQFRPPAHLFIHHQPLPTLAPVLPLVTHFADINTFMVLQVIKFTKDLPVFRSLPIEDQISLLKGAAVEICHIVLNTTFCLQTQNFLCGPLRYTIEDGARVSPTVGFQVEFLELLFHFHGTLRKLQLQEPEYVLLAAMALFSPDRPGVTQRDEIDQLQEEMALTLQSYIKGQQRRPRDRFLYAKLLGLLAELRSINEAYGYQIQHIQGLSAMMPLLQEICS

Row | SMILES | fold induction at 24 h, 10 µM
25 | CCOc1ccccc1CCCNC(=O)Nc1c(CC)cccc1CC | 4.88
26 | CCCc1ccc(S(=O)(=O)N(Cc2ccccc2)c2ccc(OC)cc2)cc1 | 3.8
27 | O=C(NCC1CCCCC1)N[C@H]1C[C@@H]1c1ccccc1 | 2.95
28 | COc1ccc(OC)c(CN2C(=O)CS[C@@H]2c2ccc(F)c(Br)c2)c1 | 3.87
29 | CCc1cccc(NC(=O)N(CC)[C@H](C)Cc2ccc(OC)cc2)c1 | 1.86
30 | CCN(CC)c1ccc(NS(=O)(=O)c2ccc(Cl)cc2)c(C)c1 | 5.5
31 | CCc1cc(Br)ccc1S(=O)(=O)NCc1ccccc1 | 2.51
32 | Cn1ccnc1CN1CCCN(C(=O)Nc2ccc(F)c(F)c2F)CC1 | 2.23
33 | CSCCN1C(=O)CS[C@@H]1c1ccc(Br)s1 | 2.97
34 | CCC(=O)NCC(=O)N1CCCN1C(=O)Cc1c(C)[nH]c2ccccc12 | 2.39
35 | O=P(Oc1ccccc1)(Oc1ccccc1)Oc1ccccc1 [TRIPHENYL PHOSPHATE] | 3.96
36 | CCc1cc(Br)ccc1S(=O)(=O)Nc1ccccc1[C@@H](C)CC | 4.47
37 | O=S(=O)(NCC(c1ccccc1)c1ccccc1)c1cccs1 | 3.28
38 | Cc1cccc(NC(=O)N2CCN(c3cccc(C)c3)[C@H](C)C2)c1 | 1.45
39 | CN(C)c1ccc(NS(=O)(=O)c2ccc(Br)cc2)cc1 | 2.03
40 | CCN(c1ccccc1)S(=O)(=O)c1ccc(C(C)(C)CC)cc1 | 6.35
41 | O=S(=O)(Nc1nc2c(s1)CCCC2)c1ccc(Br)s1 | 1.32
42 | C[C@@H]1Cc2ccccc2N1S(=O)(=O)c1cccc2nsnc12 | 5.22
43 | O=S(=O)(NCc1csc2ccccc12)c1cccs1 | 1.76
44 | Cc1cccc(NC(=O)N(Cc2ccccc2)Cc2ccccc2)c1 | 4.17
45 | CC(C)c1ccc(OP(=O)(Oc2ccc(C(C)C)cc2)Oc2ccc(C(C)C)cc2)cc1 | 2.45
46 | CCOc1ccccc1N1CCN(Cc2ccc(C)s2)CC1 | 2.7
47 | Cc1ccc(NC(=O)NC2CCC2)cc1C | 1.37
48 | CCCCCNC(=O)Nc1c(C)cccc1C(C)(C)C | 2.6

biological target: CAR (NR1I3) Asn165Ala mutant (Homo sapiens, UniProt Q14994, N165A); test: Activation of human CAR Asn165Ala mutant expressed in human C3A cells at 10 uM after 24 hrs by GAL4-dependent luciferase reporter gene assay relative to control; format: cell-based; conditions: C3A cells expressing human CAR Asn165Ala mutant, read-out: FC
Sequence (Q14994 whole entry N165A, the tested form may be a part): as the sequence (Q14994 whole entry H203A, the tested form may be a part) above, with N165A, A203H counted along it

Row | SMILES | fold induction at 24 h, 10 µM
49 | CCOc1ccccc1CCCNC(=O)Nc1c(CC)cccc1CC | 0.81
50 | CCCc1ccc(S(=O)(=O)N(Cc2ccccc2)c2ccc(OC)cc2)cc1 | 1.82
51 | O=C(NCC1CCCCC1)N[C@H]1C[C@@H]1c1ccccc1 | 1.14
52 | COc1ccc(OC)c(CN2C(=O)CS[C@@H]2c2ccc(F)c(Br)c2)c1 | 1.13
53 | CCc1cccc(NC(=O)N(CC)[C@H](C)Cc2ccc(OC)cc2)c1 | 1.72
54 | CCN(CC)c1ccc(NS(=O)(=O)c2ccc(Cl)cc2)c(C)c1 | 1.1
55 | CCc1cc(Br)ccc1S(=O)(=O)NCc1ccccc1 | 1.19
56 | Cn1ccnc1CN1CCCN(C(=O)Nc2ccc(F)c(F)c2F)CC1 | 1.98
57 | CSCCN1C(=O)CS[C@@H]1c1ccc(Br)s1 | 1.87
58 | CCC(=O)NCC(=O)N1CCCN1C(=O)Cc1c(C)[nH]c2ccccc12 | 1.23
59 | O=P(Oc1ccccc1)(Oc1ccccc1)Oc1ccccc1 [TRIPHENYL PHOSPHATE] | 3.01
60 | CCc1cc(Br)ccc1S(=O)(=O)Nc1ccccc1[C@@H](C)CC | 2.75
61 | O=S(=O)(NCC(c1ccccc1)c1ccccc1)c1cccs1 | 0.53
62 | Cc1cccc(NC(=O)N2CCN(c3cccc(C)c3)[C@H](C)C2)c1 | 1.08
63 | CN(C)c1ccc(NS(=O)(=O)c2ccc(Br)cc2)cc1 | 0.99
64 | CCN(c1ccccc1)S(=O)(=O)c1ccc(C(C)(C)CC)cc1 | 1.22
65 | O=S(=O)(Nc1nc2c(s1)CCCC2)c1ccc(Br)s1 | 1.01
66 | C[C@@H]1Cc2ccccc2N1S(=O)(=O)c1cccc2nsnc12 | 1.05
67 | O=S(=O)(NCc1csc2ccccc12)c1cccs1 | 1.7
68 | Cc1cccc(NC(=O)N(Cc2ccccc2)Cc2ccccc2)c1 | 3.64
69 | CC(C)c1ccc(OP(=O)(Oc2ccc(C(C)C)cc2)Oc2ccc(C(C)C)cc2)cc1 | 2.66
70 | CCOc1ccccc1N1CCN(Cc2ccc(C)s2)CC1 | 2.2
71 | Cc1ccc(NC(=O)NC2CCC2)cc1C | 1.33
72 | CCCCCNC(=O)Nc1c(C)cccc1C(C)(C)C | 1.76

biological target: CAR (NR1I3) Ile164Ala mutant (Homo sapiens, UniProt Q14994, I164A); test: Activation of human CAR Ile164Ala mutant expressed in human C3A cells at 10 uM after 24 hrs by GAL4-dependent luciferase reporter gene assay relative to control; format: cell-based; conditions: C3A cells expressing human CAR Ile164Ala mutant, read-out: FC
Sequence (Q14994 whole entry I164A, the tested form may be a part): as the sequence (Q14994 whole entry H203A, the tested form may be a part) above, with I164A, A203H counted along it

Row | SMILES | fold induction at 24 h, 10 µM
73 | CCOc1ccccc1CCCNC(=O)Nc1c(CC)cccc1CC | 1.48
74 | CCCc1ccc(S(=O)(=O)N(Cc2ccccc2)c2ccc(OC)cc2)cc1 | 1.56
75 | O=C(NCC1CCCCC1)N[C@H]1C[C@@H]1c1ccccc1 | 2.86
76 | COc1ccc(OC)c(CN2C(=O)CS[C@@H]2c2ccc(F)c(Br)c2)c1 | 1.87
77 | CCc1cccc(NC(=O)N(CC)[C@H](C)Cc2ccc(OC)cc2)c1 | 1.32
78 | CCN(CC)c1ccc(NS(=O)(=O)c2ccc(Cl)cc2)c(C)c1 | 4.14
79 | CCc1cc(Br)ccc1S(=O)(=O)NCc1ccccc1 | 2.89
80 | Cn1ccnc1CN1CCCN(C(=O)Nc2ccc(F)c(F)c2F)CC1 | 1.36
81 | CSCCN1C(=O)CS[C@@H]1c1ccc(Br)s1 | 1.3
82 | CCC(=O)NCC(=O)N1CCCN1C(=O)Cc1c(C)[nH]c2ccccc12 | 1.08
83 | O=P(Oc1ccccc1)(Oc1ccccc1)Oc1ccccc1 [TRIPHENYL PHOSPHATE] | 6.42
84 | CCc1cc(Br)ccc1S(=O)(=O)Nc1ccccc1[C@@H](C)CC | 4.57
85 | O=S(=O)(NCC(c1ccccc1)c1ccccc1)c1cccs1 | 1.42
86 | Cc1cccc(NC(=O)N2CCN(c3cccc(C)c3)[C@H](C)C2)c1 | 0.84
87 | CN(C)c1ccc(NS(=O)(=O)c2ccc(Br)cc2)cc1 | 2.33
88 | CCN(c1ccccc1)S(=O)(=O)c1ccc(C(C)(C)CC)cc1 | 1.42
89 | O=S(=O)(Nc1nc2c(s1)CCCC2)c1ccc(Br)s1 | 1.06
90 | C[C@@H]1Cc2ccccc2N1S(=O)(=O)c1cccc2nsnc12 | 6.66
91 | O=S(=O)(NCc1csc2ccccc12)c1cccs1 | 1.54
92 | Cc1cccc(NC(=O)N(Cc2ccccc2)Cc2ccccc2)c1 | 3.74
93 | CC(C)c1ccc(OP(=O)(Oc2ccc(C(C)C)cc2)Oc2ccc(C(C)C)cc2)cc1 | 1.67
94 | CCOc1ccccc1N1CCN(Cc2ccc(C)s2)CC1 | 1.49
95 | Cc1ccc(NC(=O)NC2CCC2)cc1C | 1.37
96 | CCCCCNC(=O)Nc1c(C)cccc1C(C)(C)C | 1.24

biological target: CAR (NR1I3) Phe161Ala mutant (Homo sapiens, UniProt Q14994, F161A); test: Activation of human CAR Phe161Ala mutant expressed in human C3A cells at 10 uM after 24 hrs by GAL4-dependent luciferase reporter gene assay relative to control; format: cell-based; conditions: C3A cells expressing human CAR Phe161Ala mutant, read-out: FC
Sequence (Q14994 whole entry F161A, the tested form may be a part): as the sequence (Q14994 whole entry H203A, the tested form may be a part) above, with F161A, A203H counted along it

Row | SMILES | fold induction at 24 h, 10 µM
97 | CCOc1ccccc1CCCNC(=O)Nc1c(CC)cccc1CC | 1.52
98 | CCCc1ccc(S(=O)(=O)N(Cc2ccccc2)c2ccc(OC)cc2)cc1 | 1.22
99 | O=C(NCC1CCCCC1)N[C@H]1C[C@@H]1c1ccccc1 | 1.21
100 | COc1ccc(OC)c(CN2C(=O)CS[C@@H]2c2ccc(F)c(Br)c2)c1 | 1.17
101 | CCc1cccc(NC(=O)N(CC)[C@H](C)Cc2ccc(OC)cc2)c1 | 0.92
102 | CCN(CC)c1ccc(NS(=O)(=O)c2ccc(Cl)cc2)c(C)c1 | 1.08
103 | CCc1cc(Br)ccc1S(=O)(=O)NCc1ccccc1 | 3.36
104 | Cn1ccnc1CN1CCCN(C(=O)Nc2ccc(F)c(F)c2F)CC1 | 1.24
105 | CSCCN1C(=O)CS[C@@H]1c1ccc(Br)s1 | 0.97
106 | CCC(=O)NCC(=O)N1CCCN1C(=O)Cc1c(C)[nH]c2ccccc12 | 0.96
107 | O=P(Oc1ccccc1)(Oc1ccccc1)Oc1ccccc1 [TRIPHENYL PHOSPHATE] | 0.82
108 | CCc1cc(Br)ccc1S(=O)(=O)Nc1ccccc1[C@@H](C)CC | 3.62
109 | O=S(=O)(NCC(c1ccccc1)c1ccccc1)c1cccs1 | 0.95
110 | Cc1cccc(NC(=O)N2CCN(c3cccc(C)c3)[C@H](C)C2)c1 | 1.38
111 | CN(C)c1ccc(NS(=O)(=O)c2ccc(Br)cc2)cc1 | 1.12
112 | CCN(c1ccccc1)S(=O)(=O)c1ccc(C(C)(C)CC)cc1 | 1.56
113 | O=S(=O)(Nc1nc2c(s1)CCCC2)c1ccc(Br)s1 | 1
114 | C[C@@H]1Cc2ccccc2N1S(=O)(=O)c1cccc2nsnc12 | 1.3
115 | O=S(=O)(NCc1csc2ccccc12)c1cccs1 | 1.57
116 | Cc1cccc(NC(=O)N(Cc2ccccc2)Cc2ccccc2)c1 | 1.53
117 | CC(C)c1ccc(OP(=O)(Oc2ccc(C(C)C)cc2)Oc2ccc(C(C)C)cc2)cc1 | 1.06
118 | CCOc1ccccc1N1CCN(Cc2ccc(C)s2)CC1 | 1.01
119 | Cc1ccc(NC(=O)NC2CCC2)cc1C | 1.15
120 | CCCCCNC(=O)Nc1c(C)cccc1C(C)(C)C | 0.97
